Test results as given in patent publication US20160039904A1, “STABILIZED SINGLE HUMAN CD4 DOMAINS AND FUSION PROTEINS” (priority 2013, published 2016).

Assays:
[1] = test system: HIV-1 GS-015.EC12; experiment: TZM-bl cell-based neutralization assay; details: Table 6; GS-015.EC12, clade C, R5
[2] = test system: HIV-1 55815.EC3; experiment: TZM-bl cell-based neutralization assay; details: Table 6; 55815.EC3, clade AG, R5
[3] = test system: HIV-1 Env Bal; experiment: HIV-1 Env-mediated cell-cell fusion; format: cell-based; details: R5
[4] = test system: HIV-1 CM240.EC1; experiment: TZM-bl cell-based neutralization assay; details: Table 6; CM240.EC1, clade AE, R5
[5] = test system: HIV-1 57128.VRC18; experiment: TZM-bl cell-based neutralization assay; details: Table 6; 57128.VRC18, clade D, R5
[6] = test system: HIV-1 PBL286.VRC36aPV; experiment: TZM-bl cell-based neutralization assay; details: Table 6, clade C, R5
[7] = test system: HIV-1 IIIB; experiment: Pseudotyped HIV-1 neutralization (HOS-CD4-CXCR4 cells); format: cell-based; details: Table 3, clade B, X4
Protocol: (§1) To determine the potency and breadth of HIV-1 neutralization by the D1 mutants, viruses pseudotyped with Envs from HIV-1 isolates representing clades A-E and using either CCR5 (R5) or CXCR4 (X4) or both (R5X4) as a coreceptor were included. Pseudoviruses were derived from 293T cells and a neutralization assay was performed in duplicate using HOS-CD4-CCR5 (for all R5 and dual tropic viruses) or HOS-CD4-CXCR4 cell lines as described in Chen et al., Proc. Natl. Acad. Sci. USA, 105: 17121-17126 (2008)). Luminescence was measured 48 hours post-infection and the percentage neutralization was calculated by the following formula: (1—average RLU of inhibitor-containing wells/average RLU or virus-only wells)×100.

[8] = test system: HIV-1 NL4-3; experiment: as above; format: cell-based; details: Table 3; NL4-3, clade B, X4
Protocol: as §1

[9] = test system: HIV-1 Env JRFL; experiment: HIV-1 Env-mediated cell-cell fusion; format: cell-based; details: Table 5, clade B, R5
[10] = test system: HIV-1 KNH1088.EC5; experiment: TZM-bl cell-based neutralization assay; details: Table 6; KNH1088.EC5, clade A, R5
[11] = Stability against degradation in PBS at 37° C. (binding activity to gp140Con-s); format: physicochemical
[12] = next 5 days of incubation (days 5-10), 37° C.
Protocol: The proteins were then assessed for their stability against degradation during 15 days of incubation with PBS (see FIG. 12A) or human serum (see FIG. 12B) at 37° C.

[13] = Dynamic light scattering (aggregation); format: physicochemical
Protocol: To test whether soluble aggregates of 4Dm2m and 6Dm2m formed during prolonged incubation, dynamic light scattering (DLS) was used. Proteins concentrated to 10 mg/ml in PBS were stored at […] and slowly thawed on ice before measurements.

[14] = test system: HIV-1 primary isolates Bal and JRFL; format: cell-based; details: in contrast to D1D2
[15] = test system: HIV-1 pseudotyped with Envs from different clades; experiment: Pseudotyped HIV-1 neutralization, means over the panel of Table 3; format: cell-based; details: all viruses, <[…] assigned 0.01, 2G12: 10 isolates significantly neutralized
Protocol: as §1

[16] = test system: HIV-1 Bal.EC1 TC; experiment: TZM-bl cell-based neutralization assay; details: Table 6, clade B, R5

Work on “4Dm2m: bispecific multivalent fusion protein of mD1.22 and m36.4; two SEQ ID NO: 20 and two SEQ ID NO: 21 chains” yielded an IC50 [1] of 0.022 nM, an IC50 [2] of 0.084 nM and an IC90 [2] of 0.61 nM. For the same substance, the IC50 ([3]; Table 4, clade B) was 4.1 nM, the IC50 ([3]; Table 5, clade B) was 4.1 ± 0.1 nM and the IC50 [4] was 0.45 nM. The IC90 [4] was 3.7 nM, the IC50 [5] was 0.4 nM and the IC90 [5] was 2.8 nM. For the same substance, the IC50 [6] was 2 nM, the IC50 [7] was 0.037 ± 0.001 nM and the IC90 [7] was 0.1 ± 0.01 nM. The IC50 [8] was 0.094 ± 0.002 nM, the IC90 [8] was 0.15 ± 0.02 nM and the IC50 [9] was 3.6 ± 0.2 nM. For the same substance, the IC90 [9] was 8.8 ± 0.4 nM, the IC50 [10] was 0.48 nM and the remained functional ([11]; end of 15 days of incubation with PBS) was “about 90%”. For the same substance, the “amount of functional protein” value ([11]; incubation in PBS for 10 days) was “no significant decrease”, the “degradation in human serum” value [12] was “slower than that of CD4-Ig” and the aggregation propensity [13] was “low aggregation propensity”. For the same substance, the “aggregation during incubation (DLS)” value ([13]; 10 mg/ml in PBS, 4° C. and 37° C.) was “disappeared within the first day of incubation”, the “average diameter of particles (DLS)” value ([13]; 10 mg/ml in PBS, after freeze-thaw, predominantly small particles) was 16.3 nm and the “enhancement of HIV-1 infectivity at low concentrations” value [14] was “not enhance HIV-1 infectivity”. The “IC50, arithmetic mean” value [15] was 0.22 nM, the “IC50, geometric mean” value [15] was 0.12 nM and the “IC90, arithmetic mean” value [15] was 1.6 nM. For the same substance, the “IC90, geometric mean” value [15] was 0.56 nM, the IC50 [16] was 0.057 nM and the IC90 [16] was 0.22 nM.
